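A five-concentration, 48-hour dose response in 96-well plates underlies each endpoint, interpolated linearly between surrounding concentrations. At the GI50, growth is halved.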 Calls of active or inactive are those of the source. Cut-off read from the data, not from the text of the source: active = GI50 up to about 1.1 µM and inactive = higher.
Assays:
Assay in all cases: DTP human tumour cell line panel, 48 h
SW-620 = tested on: SW-620
NCI-H460 = tested on: NCI-H460
M19-MEL = tested on: M19-MEL
KM-20L2 = tested on: KM-20L2
SF-539 = tested on: SF-539
HT-29 = tested on: HT-29
A498 = tested on: A498
HOP-62 = tested on: HOP-62
LOX IMVI = tested on: LOX IMVI
UACC-257 = tested on: UACC-257
A549 = tested on: A549
NCI-H522 = tested on: NCI-H522
EKVX = tested on: EKVX
HL-60 = tested on: HL-60
HCT-15 = tested on: HCT-15
K562 = tested on: K562
HCC 2998 = tested on: HCC 2998
IGROV-1 = tested on: IGROV-1
SNB-78 = tested on: SNB-78
DLD-1 = tested on: DLD-1
TK-10 = tested on: TK-10
RPMI-8226 = tested on: RPMI-8226
KM12 = tested on: KM12
786-0 = tested on: 786-0
OVCAR-3 = tested on: OVCAR-3
UO-31 = tested on: UO-31
HCT-116 = tested on: HCT-116
Malme-3M = tested on: Malme-3M
OVCAR-4 = tested on: OVCAR-4
UACC-62 = tested on: UACC-62
NCI-H226 = tested on: NCI-H226
CCRF-CEM = tested on: CCRF-CEM
SF-268 = tested on: SF-268
SNB-75 = tested on: SNB-75
HOP-18 = tested on: HOP-18
OVCAR-5 = tested on: OVCAR-5
COLO 205 = tested on: COLO 205
SK-OV-3 = tested on: SK-OV-3
SN12C = tested on: SN12C
U-251 = tested on: U-251
SK-MEL-2 = tested on: SK-MEL-2
SF-295 = tested on: SF-295
SNB-19 = tested on: SNB-19
NCI-H23 = tested on: NCI-H23
SK-MEL-28 = tested on: SK-MEL-28
SR = tested on: SR
DMS-273 = tested on: DMS-273
SK-MEL-5 = tested on: SK-MEL-5
MOLT-4 = tested on: MOLT-4
RXF 393 = tested on: RXF 393
XF498 = tested on: XF498
DMS-114 = tested on: DMS-114
ACHN = tested on: ACHN
OVCAR-8 = tested on: OVCAR-8
LXFL 529 = tested on: LXFL 529
HOP-92 = tested on: HOP-92
M14 = tested on: M14

With `Cc1nc2nn(C)cc2c(=O)n1/N=C/c1ccccc1` the GI50 (SW-620) was > 100 µM (inactive), the GI50 (NCI-H460) was > 100 µM (inactive) and the GI50 (M19-MEL) was > 100 µM (inactive). The GI50 (KM-20L2) was > 100 µM (inactive), the GI50 (SF-539) was > 100 µM (inactive) and the GI50 (HT-29) was > 100 µM (inactive). The GI50 (A498) was > 100 µM (inactive), the GI50 (HOP-62) was > 100 µM (inactive) and the GI50 (LOX IMVI) was > 100 µM (inactive). The GI50 (UACC-257) was > 100 µM (inactive), the GI50 (A549) was > 100 µM (inactive) and the GI50 (NCI-H522) was > 100 µM (inactive). The GI50 (EKVX) was > 100 µM (inactive), the GI50 (HL-60) was > 100 µM (inactive) and the GI50 (HCT-15) was over 100 µM. For the same compound, the GI50 (K562) was > 100 µM (inactive), the GI50 (HCC 2998) was > 100 µM (inactive) and the GI50 (IGROV-1) was > 100 µM (inactive). For the same compound, the GI50 (SNB-78) was > 100 µM (inactive), the GI50 (DLD-1) was > 100 µM (inactive) and the GI50 (TK-10) was > 100 µM (inactive). For the same compound, the GI50 (RPMI-8226) was > 100 µM (inactive), the GI50 (KM12) was > 100 µM (inactive) and the GI50 (786-0) was > 100 µM (inactive). The GI50 (OVCAR-3) was > 100 µM (inactive), the GI50 (UO-31) was > 100 µM (inactive) and the GI50 (HCT-116) was > 100 µM (inactive). The GI50 (Malme-3M) was > 100 µM (inactive), the GI50 (OVCAR-4) was > 100 µM (inactive) and the GI50 (UACC-62) was > 100 µM (inactive). For the same compound, the GI50 (NCI-H226) was > 100 µM (inactive), the GI50 (CCRF-CEM) was > 100 µM (inactive) and the GI50 (SF-268) was > 100 µM (inactive). For the same compound, the GI50 (SNB-75) was > 100 µM (inactive), the GI50 (HOP-18) was 73.1 µM (inactive) and the GI50 (OVCAR-5) was > 100 µM (inactive). The GI50 (COLO 205) was > 100 µM (inactive), the GI50 (SK-OV-3) was > 100 µM (inactive) and the GI50 (SN12C) was > 100 µM (inactive). For the same compound, the GI50 (U-251) was > 100 µM (inactive), the GI50 (SK-MEL-2) was > 100 µM (inactive) and the GI50 (SF-295) was > 100 µM (inactive). The GI50 (SNB-19) was > 100 µM (inactive), the GI50 (NCI-H23) was > 100 µM (inactive) and the GI50 (SK-MEL-28) was > 100 µM (inactive). The GI50 (SR) was > 100 µM (inactive), the GI50 (DMS-273) was > 100 µM (inactive) and the GI50 (SK-MEL-5) was > 100 µM (inactive). The GI50 (MOLT-4) was > 100 µM (inactive), the GI50 (RXF 393) was > 100 µM (inactive) and the GI50 (XF498) was > 100 µM (inactive). For the same compound, the GI50 (DMS-114) was > 100 µM (inactive), the GI50 (ACHN) was > 100 µM (inactive) and the GI50 (OVCAR-8) was > 100 µM (inactive).
For `C=C1CCC2[C@@H](CCC3[C@]2(C)CCC[C@]3(C)C(=O)OC)C1CC=O` (stereo partly specified), the GI50 (SW-620) was 19.1 µM (inactive), the GI50 (NCI-H460) was 15.3 µM (inactive) and the GI50 (M19-MEL) was 18.2 µM (inactive). For the same compound, the GI50 (LXFL 529) was 16 µM (inactive), the GI50 (KM-20L2) was 18.8 µM (inactive) and the GI50 (SF-539) was 16.9 µM (inactive). For the same compound, the GI50 (HT-29) was 16.6 µM (inactive), the GI50 (HOP-92) was 14.6 µM (inactive) and the GI50 (UACC-257) was 16.2 µM (inactive). The GI50 (EKVX) was 20.1 µM (inactive), the GI50 (HL-60) was 15.6 µM (inactive) and the GI50 (HCT-15) was 19.9 µM. The GI50 (IGROV-1) was 20.2 µM (inactive), the GI50 (SNB-78) was 17.6 µM (inactive) and the GI50 (DLD-1) was 21.6 µM (inactive). For the same compound, the GI50 (786-0) was 18.1 µM (inactive), the GI50 (OVCAR-3) was 14.2 µM (inactive) and the GI50 (HCT-116) was 15.2 µM (inactive). The GI50 (Malme-3M) was 19.1 µM (inactive), the GI50 (OVCAR-4) was 17.4 µM (inactive) and the GI50 (UACC-62) was 15.2 µM (inactive). The GI50 (NCI-H226) was 17.9 µM (inactive), the GI50 (CCRF-CEM) was 14 µM (inactive) and the GI50 (SF-268) was 18.2 µM (inactive). The GI50 (HOP-18) was 15.6 µM (inactive), the GI50 (COLO 205) was 18.5 µM (inactive) and the GI50 (SN12C) was 18.2 µM (inactive). For the same compound, the GI50 (SK-MEL-2) was 18.9 µM (inactive), the GI50 (NCI-H23) was 18.6 µM (inactive) and the GI50 (SK-MEL-28) was 16.3 µM (inactive). For the same compound, the GI50 (DMS-273) was 20.9 µM (inactive), the GI50 (M14) was 16.5 µM (inactive) and the GI50 (SK-MEL-5) was 19.6 µM (inactive). For the same compound, the GI50 (XF498) was 14.1 µM (inactive), the GI50 (DMS-114) was 17.5 µM (inactive) and the GI50 (ACHN) was 15.9 µM (inactive). For the same compound, the GI50 (OVCAR-8) was 19.4 µM (inactive).

From ChEMBL document CHEMBL1201862, “PubChem BioAssay data set” (2004)
